Measured values: patent US8497385B2, “Bryostatin analogues, synthetic methods and uses” (The Board of Trustees of the Leland Stanford Junior …, priority 2007, dated 2013)

Columns and labels:
PKCδ-C1B = PKCδ-C1B (Homo sapiens (Human), UniProt Q05655); experiment: PKCδ-C1B Assay; assay type: binding
CCRF-CEM = experiment: NCI growth inhibition, CCRF-CEM (Leukemia); assay type: cell-based, human
HL-60(TB) = assay type: cell-based, human
K-562 = experiment: NCI growth inhibition, K-562 (Leukemia); assay type: cell-based, human
MOLT-4 = experiment: NCI growth inhibition, MOLT-4 (Leukemia); assay type: cell-based, human
A549/ATCC = experiment: NCI growth inhibition, A549/ATCC (NSC Lung); assay type: cell-based, human
EKVX = experiment: NCI growth inhibition, EKVX (NSC Lung); assay type: cell-based, human
HOP-92 = experiment: NCI growth inhibition, HOP-92 (NSC Lung); assay type: cell-based, human
HCT-116 = experiment: NCI growth inhibition, HCT-116 (Colon); assay type: cell-based, human
HCT-15 = experiment: NCI growth inhibition, HCT-15 (Colon); assay type: cell-based, human
HT29 = experiment: NCI growth inhibition, HT29 (Colon); assay type: cell-based, human
KM12 = experiment: NCI growth inhibition, KM12 (Colon); assay type: cell-based, human
SW-620 = experiment: NCI growth inhibition, SW-620 (Colon); assay type: cell-based, human
SF-268 = experiment: NCI growth inhibition, SF-268 (CNS); assay type: cell-based, human
SF-295 = experiment: NCI growth inhibition, SF-295 (CNS); assay type: cell-based, human
SNB-19 = experiment: NCI growth inhibition, SNB-19 (CNS); assay type: cell-based, human
SNB-75 = experiment: NCI growth inhibition, SNB-75 (CNS); assay type: cell-based, human
U251 = experiment: NCI growth inhibition, U251 (CNS); assay type: cell-based, human
PC-3 = experiment: NCI growth inhibition, PC-3 (Prostate); assay type: cell-based, human
DU-145 = experiment: NCI growth inhibition, DU-145 (Prostate); assay type: cell-based, human
MI4 = experiment: NCI growth inhibition, MI4 (Melanoma); assay type: cell-based, human
SK-MEL-2 = experiment: NCI growth inhibition, SK-MEL-2 (Melanoma); assay type: cell-based, human
SK-MEL-28 = experiment: NCI growth inhibition, SK-MEL-28 (Melanoma); assay type: cell-based, human
SK-MEL-5 = experiment: NCI growth inhibition, SK-MEL-5 (Melanoma); assay type: cell-based, human
UACC-62 = experiment: NCI growth inhibition, UACC-62 (Melanoma); assay type: cell-based, human
IGROVI = experiment: NCI growth inhibition, IGROVI (Ovarian); assay type: cell-based, human
OVCAR-3 = experiment: NCI growth inhibition, OVCAR-3 (Ovarian); assay type: cell-based, human
OVCAR-4 = experiment: NCI growth inhibition, OVCAR-4 (Ovarian); assay type: cell-based, human
OVCAR-5 = experiment: NCI growth inhibition, OVCAR-5 (Ovarian); assay type: cell-based, human
OVCAR-8 = experiment: NCI growth inhibition, OVCAR-8 (Ovarian); assay type: cell-based, human
786-0 = experiment: NCI growth inhibition, 786-0 (Renal); assay type: cell-based, human
CAKI-1 = experiment: NCI growth inhibition, CAKI-1 (Renal); assay type: cell-based, human
SN12C = experiment: NCI growth inhibition, SN12C (Renal); assay type: cell-based, human
TK-10 = experiment: NCI growth inhibition, TK-10 (Renal); assay type: cell-based, human
MCF7 = experiment: NCI growth inhibition, MCF7 (Breast); assay type: cell-based, human
MDA-MB-231/ATCC = experiment: NCI growth inhibition, MDA-MB-231/ATCC (Breast); assay type: cell-based, human
MDA-MB-435 = experiment: NCI growth inhibition, MDA-MB-435 (Breast); assay type: cell-based, human
BT-549 = experiment: NCI growth inhibition, BT-549 (Breast); assay type: cell-based, human
T-47D = experiment: NCI growth inhibition, T-47D (Breast); assay type: cell-based, human

Chain of PKCδ-C1B (Q05655 whole entry, looked up): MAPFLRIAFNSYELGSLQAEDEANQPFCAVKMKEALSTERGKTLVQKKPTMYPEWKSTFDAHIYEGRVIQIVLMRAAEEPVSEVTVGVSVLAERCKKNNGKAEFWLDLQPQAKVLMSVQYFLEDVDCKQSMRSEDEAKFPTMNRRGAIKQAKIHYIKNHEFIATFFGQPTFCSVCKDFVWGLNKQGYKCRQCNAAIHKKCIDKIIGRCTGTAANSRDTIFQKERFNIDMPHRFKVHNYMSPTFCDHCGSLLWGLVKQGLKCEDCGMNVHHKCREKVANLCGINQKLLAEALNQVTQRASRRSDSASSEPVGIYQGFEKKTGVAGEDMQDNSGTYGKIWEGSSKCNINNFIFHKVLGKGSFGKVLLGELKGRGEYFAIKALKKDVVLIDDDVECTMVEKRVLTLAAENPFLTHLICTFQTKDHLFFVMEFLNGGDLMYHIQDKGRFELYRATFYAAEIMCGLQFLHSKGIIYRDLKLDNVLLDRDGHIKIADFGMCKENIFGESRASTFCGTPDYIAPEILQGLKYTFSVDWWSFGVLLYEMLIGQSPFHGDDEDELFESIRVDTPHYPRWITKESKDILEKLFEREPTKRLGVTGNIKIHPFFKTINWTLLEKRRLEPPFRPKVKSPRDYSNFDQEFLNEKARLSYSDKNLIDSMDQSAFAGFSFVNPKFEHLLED

CCCCCCCC(=O)OC1C(=CC(=O)OC)CC2CC(CO)OC(=O)CC(O)CC3CCCC(CC4CCOC(C=CC(C)(C)C1(O)O2)O4)O3 (stereo not drawn) [Formula IIa (702.1)]
activity in PKCδ-C1B assay relative to comparison analogues (PKCδ-C1B; 702.1 vs C26 methyl-containing analogue, 48, 49 vs other C20 esters): significantly higher activity
Ki (PKCδ-C1B; competition with tritiated phorbol 12,13-dibutyrate): 0.3 ± 0.07 nM
Difference of GI50 (log), Desmethyl vs Bryo-1 (CCRF-CEM): −0.51
GI50 (CCRF-CEM; Leukemia): −5.81 log of molar concentration
Difference of GI50 (log), Desmethyl vs Bryo-1 (HL-60(TB)): −0.14
GI50 (HL-60(TB)): −5.84 log of molar concentration
Difference of GI50 (log), Desmethyl vs Bryo-1 (K-562; K-562): −2.10
GI50 (K-562; K-562, Leukemia): −7.5 log of molar concentration
more active than bryostatin-1 (K-562; K-562, Leukemia): more than 2 orders of magnitude
Difference of GI50 (log), Desmethyl vs Bryo-1 (MOLT-4; MOLT-4): −2.50
GI50 (MOLT-4; MOLT-4, Leukemia): <−8.0 log of molar concentration
more active than bryostatin-1 (MOLT-4; MOLT-4, Leukemia): more than 2 orders of magnitude
Difference of GI50 (log), Desmethyl vs Bryo-1 (A549/ATCC): −1.42
GI50 (A549/ATCC; NSC Lung): −6.62 log of molar concentration
Difference of GI50 (log), Desmethyl vs Bryo-1 (EKVX): −0.28
GI50 (EKVX; NSC Lung): −5.58 log of molar concentration
Difference of GI50 (log), Desmethyl vs Bryo-1 (HOP-92; HOP-92): 0.63
GI50 (HOP-92; HOP-92, NSC Lung): −4.67 log of molar concentration
Difference of GI50 (log), Desmethyl vs Bryo-1 (HCT-116; HCT-116): −0.02
GI50 (HCT-116; HCT-116, Colon): −5.32 log of molar concentration
GI50 (HCT-15): −4.76 log of molar concentration
Difference of GI50 (log), Desmethyl vs Bryo-1 (HT29; HT29): −0.25
GI50 (HT29; HT29, Colon): −5.55 log of molar concentration
Difference of GI50 (log), Desmethyl vs Bryo-1 (KM12; KM12): −0.14
GI50 (KM12; KM12, Colon): −5.34 log of molar concentration
Difference of GI50 (log), Desmethyl vs Bryo-1 (SW-620; SW-620): 0.38
GI50 (SW-620; SW-620, Colon): −5.12 log of molar concentration
Difference of GI50 (log), Desmethyl vs Bryo-1 (SF-268; SF-268): 0.13
GI50 (SF-268; SF-268, CNS): −4.97 log of molar concentration
Difference of GI50 (log), Desmethyl vs Bryo-1 (SF-295; SF-295): −0.85
GI50 (SF-295; SF-295, CNS): −6.05 log of molar concentration
Difference of GI50 (log), Desmethyl vs Bryo-1 (SNB-19; SNB-19): −0.20
GI50 (SNB-19; SNB-19, CNS): −5.2 log of molar concentration
Difference of GI50 (log), Desmethyl vs Bryo-1 (SNB-75; SNB-75): 0.53
GI50 (SNB-75; SNB-75, CNS): −4.97 log of molar concentration
Difference of GI50 (log), Desmethyl vs Bryo-1 (U251; U251): −0.30
GI50 (U251; U251, CNS): −5.4 log of molar concentration
Difference of GI50 (log), Desmethyl vs Bryo-1 (PC-3; PC-3): −0.30
GI50 (PC-3; PC-3, Prostate): −5.6 log of molar concentration
Difference of GI50 (log), Desmethyl vs Bryo-1 (DU-145; DU-145): −0.02
GI50 (DU-145; DU-145, Prostate): −5.02 log of molar concentration
Difference of GI50 (log), Desmethyl vs Bryo-1 (MI4; MI4): −0.26
GI50 (MI4; MI4, Melanoma): −5.26 log of molar concentration
Difference of GI50 (log), Desmethyl vs Bryo-1 (SK-MEL-2; SK-MEL-2): 0.18
GI50 (SK-MEL-2; SK-MEL-2, Melanoma): −5.02 log of molar concentration
Difference of GI50 (log), Desmethyl vs Bryo-1 (SK-MEL-28; SK-MEL-28): 0.43
GI50 (SK-MEL-28; SK-MEL-28, Melanoma): −4.67 log of molar concentration
Difference of GI50 (log), Desmethyl vs Bryo-1 (SK-MEL-5; SK-MEL-5): −0.73
GI50 (SK-MEL-5; SK-MEL-5, Melanoma): −6.43 log of molar concentration
Difference of GI50 (log), Desmethyl vs Bryo-1 (UACC-62; UACC-62): 0.19
GI50 (UACC-62; UACC-62, Melanoma): −5.11 log of molar concentration
Difference of GI50 (log), Desmethyl vs Bryo-1 (IGROVI): 0.42
GI50 (IGROVI; Ovarian): −4.88 log of molar concentration
Difference of GI50 (log), Desmethyl vs Bryo-1 (OVCAR-3; OVCAR-3): 0.27
GI50 (OVCAR-3; OVCAR-3, Ovarian): −4.83 log of molar concentration
Difference of GI50 (log), Desmethyl vs Bryo-1 (OVCAR-4; OVCAR-4): 0.35
GI50 (OVCAR-4; OVCAR-4, Ovarian): −5.15 log of molar concentration
Difference of GI50 (log), Desmethyl vs Bryo-1 (OVCAR-5; OVCAR-5): −0.28
GI50 (OVCAR-5; OVCAR-5, Ovarian): −5.28 log of molar concentration
Difference of GI50 (log), Desmethyl vs Bryo-1 (OVCAR-8; OVCAR-8): 0.33
GI50 (OVCAR-8; OVCAR-8, Ovarian): −4.77 log of molar concentration
Difference of GI50 (log), Desmethyl vs Bryo-1 (786-0; 786-0): −0.26
GI50 (786-0; 786-0, Renal): −5.46 log of molar concentration
Difference of GI50 (log), Desmethyl vs Bryo-1 (CAKI-1; CAKI-1): −0.30
GI50 (CAKI-1; CAKI-1, Renal): −5.7 log of molar concentration
Difference of GI50 (log), Desmethyl vs Bryo-1 (SN12C): −0.49
GI50 (SN12C; Renal): −5.59 log of molar concentration
Difference of GI50 (log), Desmethyl vs Bryo-1 (TK-10; TK-10): −2.03
GI50 (TK-10; TK-10, Renal): −7.03 log of molar concentration
more active than bryostatin-1 (TK-10; TK-10, Renal): more than 2 orders of magnitude
Difference of GI50 (log), Desmethyl vs Bryo-1 (MCF7; MCF7): −0.20
GI50 (MCF7; MCF7, Breast): −5.4 log of molar concentration
Difference of GI50 (log), Desmethyl vs Bryo-1 (MDA-MB-231/ATCC): −0.49
GI50 (MDA-MB-231/ATCC; Breast): −5.69 log of molar concentration
Difference of GI50 (log), Desmethyl vs Bryo-1 (MDA-MB-435; MDA-MB-435): −2.56
GI50 (MDA-MB-435; MDA-MB-435, Breast): −7.66 log of molar concentration
more active than bryostatin-1 (MDA-MB-435; MDA-MB-435, Breast): more than 2 orders of magnitude
Difference of GI50 (log), Desmethyl vs Bryo-1 (BT-549; BT-549): 0.39
GI50 (BT-549; BT-549, Breast): −4.71 log of molar concentration
Difference of GI50 (log), Desmethyl vs Bryo-1 (T-47D): 0.18
GI50 (T-47D; Breast): −5.02 log of molar concentration
